The subject of the assay is HCV pseudoparticles (genotype 1a HCV E1 and E2 envelope, H77C isolate). In words: microbe, parasite or virus in culture. To be noted: Hepatitis C virus. It counts as cell-based.
[1] abbreviates: Huh-7, 48 h, read-out: Activity (EC50 class), HCV pseudoparticle infection of Huh7 cells, luciferase 2 days after infection, EC50 expressed as class A/B.
The mark [2] stands for this setting: Huh-7, read-out: Activity (EC50 class), HCV pseudoparticles (genotype 1a, H77C) in Huh7 cells, EC50 expressed as class A/B.
Where [3] appears, read: Huh-7, 48 h, read-out: Activity (EC50 class), HCV pseudoparticles, Huh7 cells, luciferase 2 days after infection, average of duplicates.

The structures appear in SMILES notation. Like-named read-outs stand apart in the source and are kept apart here.

Turning to `COC(=O)[C@H](CCNC(=O)C(=O)NCC1CCCOC1)NC(=O)c1ccc(Nc2nc(NC3(c4ccc(Cl)cc4)CC3)nc(OCC(F)(F)F)n2)cc1` (stereo partly drawn) [Compound 1198], the EC50 (in general, the concentration that produces a half-maximal response) under setting [1] is 0.01 to 10 nM.

Regarding `O=C(NCC1CCCO1)C(=O)NC[C@@H](NC(=O)c1ccc(Nc2nc(NC3(c4ccc(Cl)cc4)CC3)nc(OCC(F)(F)F)n2)cc1)C(=O)O` (stereo partly drawn) [Compound 1042], the EC50 under setting [1] lay within 0.01 to 10 nM.

For the compound `O=C(NCC[C@H](NC(=O)c1ccc(Nc2nc(NC3(c4ccc(Cl)cc4)CC3)nc(OCC(F)(F)F)n2)cc1)C(=O)O)C(=O)NCc1cc(F)ccc1F` [Compound 1189], the EC50 under setting [1] lay in the range of 0.01 to 10 nM.

For the compound `CC(C)(CNC(=O)C(=O)Nc1ccccc1Oc1ccccc1)CNC(=O)c1ccc(Nc2nc(NC3(c4ccc(Cl)cc4)CC3)nc(OCC(F)(F)F)n2)cc1` [Compound 3139], the EC50 under setting [2] fell in the range of 0.01 to 10 nM.

On to `COC(=O)[C@H](CCNC(=O)C(=O)Nc1ccc(OC)cc1)NC(=O)c1ccc(Nc2nc(NC3(c4ccc(Cl)cc4)CC3)nc(OCC(F)(F)F)n2)cc1` [Compound 1232], for which the EC50 under setting [1] was 0.01 to 10 nM.

Consider `Cn1cc(CCNC(=O)C(=O)NC[C@@H](NC(=O)c2ccc(Nc3nc(NC4(c5ccc(Cl)cc5)CC4)nc(OCC(F)(F)F)n3)cc2)C(=O)O)cn1` [Compound 1413], for which the EC50 under setting [1] lay in the range of 0.01 to 10 nM.

As for `COC(=O)[C@H](CNC(=O)C(=O)Nc1cccc(C(F)(F)F)c1)NC(=O)c1ccc(Nc2nc(NC3(c4ccc(Cl)cc4)CC3)nc(OCC(F)(F)F)n2)cc1` [Compound 1251], the concentration giving a half-maximal response (EC50) under setting [1] is 0.01 to 10 nM.

Consider `O=C(NCC[C@H](NC(=O)c1ccc(Nc2nc(NC3(c4ccc(Cl)cc4)CC3)nc(OCC(F)(F)F)n2)cc1)C(=O)O)C(=O)NCCn1cncn1` [Compound 1342], for which the EC50 under setting [1] was in the range of 0.01 to 10 nM.

In the case of `COc1ccccc1CNC(=O)C(=O)NC[C@H](NC(=O)c1ccc(Nc2nc(NC3(c4ccc(Cl)cc4)CC3)nc(OCC(F)(F)F)n2)cc1)C(=O)O` [Compound 1165], the EC50 under setting [1] is 0.01 to 10 nM.

As for `COC(=O)[C@H](CCNC(=O)C(=O)NC1CCCC(NC(=O)OC(C)(C)C)C1)NC(=O)c1ccc(Nc2nc(NC3(c4ccc(Cl)cc4)CC3)nc(OCC(F)(F)F)n2)cc1` (stereo partly drawn) [Compound 1097], the concentration for a half-maximal effect (EC50) under setting [1] was in the range of 0.01 to 10 nM.

Consider `COC(=O)[C@H](CCNC(=O)C(=O)Nc1ccc(-c2ccc(C)cc2)cc1)NC(=O)c1ccc(Nc2nc(NC3(c4ccc(Cl)cc4)CC3)nc(OCC(F)(F)F)n2)cc1` [Compound 3305], for which the concentration giving a half-maximal response (EC50) under setting [2] was in the range of 0.01 to 10 nM.

For the compound `CC(C)CNC(=O)C(=O)NCC(C)CNC(=O)c1ccc(Nc2nc(NC3(c4ccc(Cl)cc4)CC3)nc(OCC(F)(F)F)n2)cc1` (stereo not drawn) [Compound 3476], the EC50 under setting [2] was in the range of 0.01 to 10 nM.

In the case of `CC(C)(CNC(=O)C(=O)Nc1ccc(C(=O)c2ccc(N)cc2)cc1)CNC(=O)c1ccc(Nc2nc(NC3(c4ccc(Cl)cc4)CC3)nc(OCC(F)(F)F)n2)cc1` [Compound 3264], the EC50 is 0.24 nM (Huh-7, 48 h, HCV pseudoparticles (genotype 1a, H77C) in Huh7 cells, average of duplicate, luciferase 2 days after infection) and 0.01 to 10 nM under setting [2].

On to `Cc1cc(NC(=O)C(=O)NCC(C)(C)CNC(=O)c2ccc(Nc3nc(NC4(c5ccc(Cl)cc5)CC4)nc(OCC(F)(F)F)n3)cc2)ccc1Cl` [Compound 3798], for which the EC50 under setting [3] was in the range of 0.01 to 10 nM.

For the compound `Cc1cc(NC(=O)C(=O)NC(C)(C)CNC(=O)c2ccc(Nc3nc(NC4(c5ccc(Cl)cc5)CC4)nc(OCC(F)(F)F)n3)cc2)no1` [Compound 3422], under setting [2], the EC50 fell in the range of 0.01 to 10 nM.

In the case of `COC(=O)[C@H](CCNC(=O)C(=O)NCC1CC1)NC(=O)c1ccc(Nc2nc(NC3(c4ccc(Cl)cc4)CC3)nc(OCC(F)(F)F)n2)cc1` [Compound 1196], under setting [1], the EC50 lay in the range of 0.01 to 10 nM.

In the case of `CC(C)(CNC(=O)C(=O)Nc1cc[nH]n1)CNC(=O)c1ccc(Nc2nc(NC3(c4ccc(Cl)cc4)CC3)nc(OCC(F)(F)F)n2)cc1` [Compound 3794], the EC50 is, setting by setting: (Huh-7, 48 h, HCV pseudoparticles, Huh7 cells, luciferase 2 days after infection, average of duplicates) 0.061 nM; under setting [3], 0.01 to 10 nM.

For the compound `COC(=O)[C@H](CCNC(=O)C(=O)NCCc1cccc(OC)c1)NC(=O)c1ccc(Nc2nc(NC3(c4ccc(Cl)cc4)CC3)nc(OCC(F)(F)F)n2)cc1` [Compound 1309], the EC50 under setting [1] lay in the range of 0.01 to 10 nM.

For the compound `COC(=O)[C@H](CNC(=O)C(=O)Nc1cn[nH]c1)NC(=O)c1ccc(Nc2nc(NC3(c4ccc(Cl)cc4)CC3)nc(OCC(F)(F)F)n2)cc1` [Compound 1246], under setting [1], the EC50 is 0.01 to 10 nM.

The record behind these values is patent US8916702B2 (priority 2012, dated 2014).
